pKi: −log10 of the molar value. Values belong to the molecule of their own block, whether it stands above or below them.
Experiments:
[1] = target: Delta-type opioid receptor (Homo sapiens, UniProt P41143); assay: (§1) PDSP Secondary Binding target: OPRD1 - Compounds are tested at 10 uM concentration, plate are incubated at room temperature in the dark for 90 minutes. Reaction are stopped by vacuum filtration onto 0.3% polyethyleneimine soaked filter mats using Filtermate harvester. Scintillation cocktail is then melted onto microwave-dried filters on a hot plate and the radio activity is counted in Microbia counter.
Chain of Delta-type opioid receptor (P41143 whole entry): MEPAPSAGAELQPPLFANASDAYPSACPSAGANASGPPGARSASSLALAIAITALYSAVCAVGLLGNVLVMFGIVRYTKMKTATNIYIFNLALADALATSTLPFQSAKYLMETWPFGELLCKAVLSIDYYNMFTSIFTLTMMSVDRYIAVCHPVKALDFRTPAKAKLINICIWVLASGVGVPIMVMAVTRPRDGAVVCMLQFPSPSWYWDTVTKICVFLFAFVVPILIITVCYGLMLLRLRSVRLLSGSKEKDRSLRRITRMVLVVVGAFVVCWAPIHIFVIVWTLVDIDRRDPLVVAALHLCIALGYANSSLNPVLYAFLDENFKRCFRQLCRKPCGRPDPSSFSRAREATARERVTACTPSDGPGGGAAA

[2] = target: Sodium-dependent dopamine transporter (Homo sapiens, UniProt Q01959); assay: as §1, with “SLC6A3” for “OPRD1”
[3] = target: T1, Alpha-2A adrenergic receptor (Homo sapiens, UniProt P08913); assay: as §1, with “ADRA2A” for “OPRD1”
T1 sequence (P08913 whole entry): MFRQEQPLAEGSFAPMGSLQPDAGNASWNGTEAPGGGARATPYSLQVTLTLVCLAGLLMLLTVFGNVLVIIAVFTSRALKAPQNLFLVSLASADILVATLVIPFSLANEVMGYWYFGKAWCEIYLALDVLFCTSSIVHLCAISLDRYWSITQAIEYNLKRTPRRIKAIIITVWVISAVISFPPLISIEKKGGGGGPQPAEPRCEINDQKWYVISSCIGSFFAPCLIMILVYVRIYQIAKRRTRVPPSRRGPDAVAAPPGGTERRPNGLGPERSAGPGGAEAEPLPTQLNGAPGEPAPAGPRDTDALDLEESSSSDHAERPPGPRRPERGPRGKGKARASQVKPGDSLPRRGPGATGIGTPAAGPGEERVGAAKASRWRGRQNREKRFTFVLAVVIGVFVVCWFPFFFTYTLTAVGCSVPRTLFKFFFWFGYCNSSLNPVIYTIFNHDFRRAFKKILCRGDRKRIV

[4] = target: Histamine H4 receptor (Homo sapiens, UniProt Q9H3N8); assay: as §1, with “HRH4” for “OPRD1”
[5] = target: Histamine H3 receptor (Homo sapiens, UniProt Q9Y5N1); assay: as §1, with “HRH3” for “OPRD1”
[6] = target: Mu-type opioid receptor (Homo sapiens, UniProt P35372); assay: as §1, with “OPRM1” for “OPRD1”
Chain of Mu-type opioid receptor (P35372 whole entry): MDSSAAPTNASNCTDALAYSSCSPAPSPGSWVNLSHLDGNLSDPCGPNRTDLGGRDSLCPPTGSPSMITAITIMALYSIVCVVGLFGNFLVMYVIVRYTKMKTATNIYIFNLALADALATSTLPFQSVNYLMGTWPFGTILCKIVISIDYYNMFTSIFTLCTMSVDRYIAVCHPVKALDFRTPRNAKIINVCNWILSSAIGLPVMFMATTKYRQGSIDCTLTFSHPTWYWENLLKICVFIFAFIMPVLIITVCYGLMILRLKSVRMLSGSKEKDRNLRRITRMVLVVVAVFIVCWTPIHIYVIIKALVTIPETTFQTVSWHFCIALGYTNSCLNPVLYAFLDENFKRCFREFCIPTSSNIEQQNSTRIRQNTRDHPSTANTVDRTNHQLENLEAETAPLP

[7] = target: Sigma non-opioid intracellular receptor 1 (Homo sapiens, UniProt Q99720); assay: as §1, with “SIGMAR1” for “OPRD1”
Chain of Sigma non-opioid intracellular receptor 1 (Q99720 whole entry): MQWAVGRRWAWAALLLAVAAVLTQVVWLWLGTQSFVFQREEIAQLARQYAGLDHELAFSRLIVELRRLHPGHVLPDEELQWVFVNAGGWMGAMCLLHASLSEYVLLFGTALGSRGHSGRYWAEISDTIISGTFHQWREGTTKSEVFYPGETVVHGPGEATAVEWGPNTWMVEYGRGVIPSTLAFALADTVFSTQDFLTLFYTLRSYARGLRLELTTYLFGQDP

[8] = target: Kappa-type opioid receptor (Homo sapiens, UniProt P41145); assay: as §1, with “OPRK1” for “OPRD1”
Chain of Kappa-type opioid receptor (P41145 whole entry): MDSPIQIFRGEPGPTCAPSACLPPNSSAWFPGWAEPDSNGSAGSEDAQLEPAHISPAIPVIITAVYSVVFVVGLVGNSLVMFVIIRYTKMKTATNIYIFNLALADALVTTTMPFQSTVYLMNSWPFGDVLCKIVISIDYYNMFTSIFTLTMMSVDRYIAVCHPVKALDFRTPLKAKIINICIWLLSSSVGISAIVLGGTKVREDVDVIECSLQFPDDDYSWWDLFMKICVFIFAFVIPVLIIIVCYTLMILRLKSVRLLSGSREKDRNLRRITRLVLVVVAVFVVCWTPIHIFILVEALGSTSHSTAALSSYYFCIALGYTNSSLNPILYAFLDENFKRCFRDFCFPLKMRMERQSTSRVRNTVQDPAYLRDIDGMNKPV

[9] = target: 5-hydroxytryptamine receptor 2A (Homo sapiens, UniProt P28223); assay: as §1, with “HTR2A” for “OPRD1”
Chain of 5-hydroxytryptamine receptor 2A (P28223 whole entry): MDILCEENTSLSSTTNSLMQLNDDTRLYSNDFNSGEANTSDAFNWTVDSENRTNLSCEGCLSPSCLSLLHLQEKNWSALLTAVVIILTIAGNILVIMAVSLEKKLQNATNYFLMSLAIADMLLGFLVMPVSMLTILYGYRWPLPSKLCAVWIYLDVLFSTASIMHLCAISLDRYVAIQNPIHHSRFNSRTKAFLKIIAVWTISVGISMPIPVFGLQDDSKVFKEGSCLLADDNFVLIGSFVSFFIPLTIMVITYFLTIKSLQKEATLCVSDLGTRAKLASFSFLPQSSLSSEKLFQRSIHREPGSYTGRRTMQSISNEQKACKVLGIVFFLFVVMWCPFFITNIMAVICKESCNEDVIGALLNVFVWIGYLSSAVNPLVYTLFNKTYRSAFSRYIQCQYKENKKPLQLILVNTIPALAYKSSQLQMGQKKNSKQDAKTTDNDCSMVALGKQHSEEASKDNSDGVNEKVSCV

[10] = target: Sodium-dependent noradrenaline transporter (Homo sapiens, UniProt P23975); assay: as §1, with “SLC6A2” for “OPRD1”
Chain of Sodium-dependent noradrenaline transporter (P23975 whole entry): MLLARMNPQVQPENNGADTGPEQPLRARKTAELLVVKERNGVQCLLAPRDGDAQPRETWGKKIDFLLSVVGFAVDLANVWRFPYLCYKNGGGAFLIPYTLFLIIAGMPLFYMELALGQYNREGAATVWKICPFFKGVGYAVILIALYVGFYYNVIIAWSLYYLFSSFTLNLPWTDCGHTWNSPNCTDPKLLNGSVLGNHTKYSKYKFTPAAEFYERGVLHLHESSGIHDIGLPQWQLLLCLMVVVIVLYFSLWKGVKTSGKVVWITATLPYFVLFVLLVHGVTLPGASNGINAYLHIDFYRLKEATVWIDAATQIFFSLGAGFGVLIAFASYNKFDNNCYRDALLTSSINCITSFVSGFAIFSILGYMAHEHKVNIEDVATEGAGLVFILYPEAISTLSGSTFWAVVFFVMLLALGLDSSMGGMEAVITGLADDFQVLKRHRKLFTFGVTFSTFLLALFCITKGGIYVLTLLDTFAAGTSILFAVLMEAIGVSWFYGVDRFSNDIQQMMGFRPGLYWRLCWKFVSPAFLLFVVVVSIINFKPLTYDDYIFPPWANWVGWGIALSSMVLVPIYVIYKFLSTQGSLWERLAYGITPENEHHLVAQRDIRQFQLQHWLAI

[11] = target: Sigma intracellular receptor 2 (Homo sapiens, UniProt Q5BJF2); assay: as §1, with “TMEM97” for “OPRD1”
Chain of Sigma intracellular receptor 2 (Q5BJF2 whole entry): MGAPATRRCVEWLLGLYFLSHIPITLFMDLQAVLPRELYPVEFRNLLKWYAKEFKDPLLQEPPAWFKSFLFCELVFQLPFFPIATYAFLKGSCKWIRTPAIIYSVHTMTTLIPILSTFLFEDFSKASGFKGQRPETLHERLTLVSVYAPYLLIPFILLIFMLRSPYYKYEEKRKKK

[12] = target: Histamine H1 receptor (Homo sapiens, UniProt P35367); assay: as §1, with “HRH1” for “OPRD1”
Chain of Histamine H1 receptor (P35367 whole entry): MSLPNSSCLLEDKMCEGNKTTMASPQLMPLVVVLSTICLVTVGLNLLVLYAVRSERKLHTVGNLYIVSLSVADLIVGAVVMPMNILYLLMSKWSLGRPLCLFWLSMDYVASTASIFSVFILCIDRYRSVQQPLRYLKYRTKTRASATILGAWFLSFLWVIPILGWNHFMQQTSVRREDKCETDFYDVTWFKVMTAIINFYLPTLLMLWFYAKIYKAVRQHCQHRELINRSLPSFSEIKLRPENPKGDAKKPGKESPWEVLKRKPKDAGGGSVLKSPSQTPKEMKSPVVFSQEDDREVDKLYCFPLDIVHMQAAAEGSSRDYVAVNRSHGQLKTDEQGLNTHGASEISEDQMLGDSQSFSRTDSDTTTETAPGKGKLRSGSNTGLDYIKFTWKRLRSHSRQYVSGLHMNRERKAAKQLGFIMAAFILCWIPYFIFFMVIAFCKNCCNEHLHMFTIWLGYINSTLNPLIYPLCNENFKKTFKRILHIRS

[13] = target: T2, Muscarinic acetylcholine receptor M1 (Homo sapiens, UniProt P11229); assay: as §1, with “CHRM1” for “OPRD1”
T2 sequence (P11229 whole entry): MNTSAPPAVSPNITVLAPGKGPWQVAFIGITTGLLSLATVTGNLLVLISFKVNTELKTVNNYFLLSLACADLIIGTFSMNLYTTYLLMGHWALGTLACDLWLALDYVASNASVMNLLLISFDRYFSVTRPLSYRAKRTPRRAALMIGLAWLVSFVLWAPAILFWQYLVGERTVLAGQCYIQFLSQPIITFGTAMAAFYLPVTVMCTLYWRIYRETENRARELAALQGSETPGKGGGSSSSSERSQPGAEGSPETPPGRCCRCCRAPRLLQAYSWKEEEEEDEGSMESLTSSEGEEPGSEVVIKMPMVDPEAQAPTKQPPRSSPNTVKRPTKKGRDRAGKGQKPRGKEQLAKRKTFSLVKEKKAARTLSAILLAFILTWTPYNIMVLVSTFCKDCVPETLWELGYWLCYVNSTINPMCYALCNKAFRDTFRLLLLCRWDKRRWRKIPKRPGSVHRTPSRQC

[14] = target: T3, Muscarinic acetylcholine receptor M5 (Homo sapiens, UniProt P08912); assay: as §1, with “CHRM5” for “OPRD1”
T3 sequence (P08912 whole entry): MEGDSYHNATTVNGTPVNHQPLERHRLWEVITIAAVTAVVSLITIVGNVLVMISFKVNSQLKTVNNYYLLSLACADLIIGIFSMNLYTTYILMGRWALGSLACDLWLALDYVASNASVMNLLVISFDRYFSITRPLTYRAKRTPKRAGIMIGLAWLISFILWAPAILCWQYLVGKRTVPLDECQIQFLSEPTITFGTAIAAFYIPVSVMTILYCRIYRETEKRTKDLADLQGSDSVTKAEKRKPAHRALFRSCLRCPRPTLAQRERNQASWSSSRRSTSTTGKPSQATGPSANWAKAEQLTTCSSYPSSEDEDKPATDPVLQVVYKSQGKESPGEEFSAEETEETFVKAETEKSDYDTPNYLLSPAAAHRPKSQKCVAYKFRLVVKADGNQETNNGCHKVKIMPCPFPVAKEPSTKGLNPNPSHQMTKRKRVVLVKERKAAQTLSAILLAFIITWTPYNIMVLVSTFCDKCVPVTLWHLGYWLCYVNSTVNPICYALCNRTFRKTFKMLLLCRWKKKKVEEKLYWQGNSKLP

[15] = target: Beta-2 adrenergic receptor (Homo sapiens, UniProt P07550); assay: as §1, with “ADRB2” for “OPRD1”
Chain of Beta-2 adrenergic receptor (P07550 whole entry): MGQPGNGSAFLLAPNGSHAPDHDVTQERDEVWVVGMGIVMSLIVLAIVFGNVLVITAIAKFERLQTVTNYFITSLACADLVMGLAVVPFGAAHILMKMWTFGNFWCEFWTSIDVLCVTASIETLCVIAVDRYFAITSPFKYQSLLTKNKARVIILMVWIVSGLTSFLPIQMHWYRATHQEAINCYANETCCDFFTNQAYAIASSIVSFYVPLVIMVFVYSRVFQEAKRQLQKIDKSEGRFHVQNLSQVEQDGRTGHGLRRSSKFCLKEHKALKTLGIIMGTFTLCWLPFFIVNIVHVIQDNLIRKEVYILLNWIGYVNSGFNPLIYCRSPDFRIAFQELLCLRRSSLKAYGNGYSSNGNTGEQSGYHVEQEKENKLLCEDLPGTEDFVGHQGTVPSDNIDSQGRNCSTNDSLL

[16] = target: T4, Muscarinic acetylcholine receptor M2 (Homo sapiens, UniProt P08172); assay: as §1, with “CHRM2” for “OPRD1”
T4 sequence (P08172 whole entry): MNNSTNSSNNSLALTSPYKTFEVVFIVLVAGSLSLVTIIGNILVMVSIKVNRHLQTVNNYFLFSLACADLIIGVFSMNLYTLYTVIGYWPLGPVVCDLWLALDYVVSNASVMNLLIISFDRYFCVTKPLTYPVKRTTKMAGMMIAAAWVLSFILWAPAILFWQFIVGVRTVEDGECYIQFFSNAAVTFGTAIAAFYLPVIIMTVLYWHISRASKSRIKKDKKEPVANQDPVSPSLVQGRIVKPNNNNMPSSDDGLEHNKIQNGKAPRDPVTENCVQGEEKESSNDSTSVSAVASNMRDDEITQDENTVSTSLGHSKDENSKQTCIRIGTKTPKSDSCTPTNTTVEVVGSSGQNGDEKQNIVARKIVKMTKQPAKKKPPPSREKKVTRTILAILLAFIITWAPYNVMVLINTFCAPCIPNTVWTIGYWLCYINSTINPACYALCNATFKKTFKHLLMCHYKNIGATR

[17] = target: Histamine H2 receptor (Homo sapiens, UniProt P25021); assay: as §1, with “HRH2” for “OPRD1”
Chain of Histamine H2 receptor (P25021 whole entry): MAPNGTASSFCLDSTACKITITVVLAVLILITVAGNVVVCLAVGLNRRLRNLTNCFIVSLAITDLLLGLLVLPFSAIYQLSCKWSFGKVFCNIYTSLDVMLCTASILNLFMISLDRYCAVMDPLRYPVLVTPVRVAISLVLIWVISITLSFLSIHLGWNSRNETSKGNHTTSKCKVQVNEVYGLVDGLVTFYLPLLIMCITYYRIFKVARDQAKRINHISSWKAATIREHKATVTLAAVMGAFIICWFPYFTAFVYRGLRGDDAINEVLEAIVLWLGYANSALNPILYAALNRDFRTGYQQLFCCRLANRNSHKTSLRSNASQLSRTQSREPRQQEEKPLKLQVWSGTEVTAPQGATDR

[18] = target: T5, D(4) dopamine receptor (Homo sapiens, UniProt P21917); assay: as §1, with “DRD4” for “OPRD1”
T5 sequence (P21917 whole entry): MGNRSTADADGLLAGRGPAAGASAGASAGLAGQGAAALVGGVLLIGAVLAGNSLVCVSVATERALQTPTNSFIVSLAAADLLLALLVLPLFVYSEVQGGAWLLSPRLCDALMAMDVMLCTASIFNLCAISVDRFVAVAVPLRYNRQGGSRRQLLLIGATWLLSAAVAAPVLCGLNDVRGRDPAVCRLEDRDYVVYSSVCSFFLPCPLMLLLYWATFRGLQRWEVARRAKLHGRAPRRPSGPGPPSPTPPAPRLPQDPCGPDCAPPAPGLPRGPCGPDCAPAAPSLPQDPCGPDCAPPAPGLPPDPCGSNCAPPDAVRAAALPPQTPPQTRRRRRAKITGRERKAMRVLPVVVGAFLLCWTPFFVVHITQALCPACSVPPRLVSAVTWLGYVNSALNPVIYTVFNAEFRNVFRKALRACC

[19] = target: D(3) dopamine receptor (Homo sapiens, UniProt P35462); assay: as §1, with “DRD3” for “OPRD1”
Chain of D(3) dopamine receptor (P35462 whole entry): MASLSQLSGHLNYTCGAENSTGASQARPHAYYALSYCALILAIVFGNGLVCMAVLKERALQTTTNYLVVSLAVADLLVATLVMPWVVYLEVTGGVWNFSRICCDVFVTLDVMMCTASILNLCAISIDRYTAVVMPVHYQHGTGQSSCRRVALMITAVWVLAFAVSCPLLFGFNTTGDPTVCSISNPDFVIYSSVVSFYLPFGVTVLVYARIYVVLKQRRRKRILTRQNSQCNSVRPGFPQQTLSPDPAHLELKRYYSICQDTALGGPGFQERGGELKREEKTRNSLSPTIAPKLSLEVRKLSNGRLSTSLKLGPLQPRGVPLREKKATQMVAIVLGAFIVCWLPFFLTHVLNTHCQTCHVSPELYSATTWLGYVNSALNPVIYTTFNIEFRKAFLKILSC

[20] = target: Muscarinic acetylcholine receptor M3 (Homo sapiens, UniProt P20309); assay: as §1, with “CHRM3” for “OPRD1”
Chain of Muscarinic acetylcholine receptor M3 (P20309 whole entry): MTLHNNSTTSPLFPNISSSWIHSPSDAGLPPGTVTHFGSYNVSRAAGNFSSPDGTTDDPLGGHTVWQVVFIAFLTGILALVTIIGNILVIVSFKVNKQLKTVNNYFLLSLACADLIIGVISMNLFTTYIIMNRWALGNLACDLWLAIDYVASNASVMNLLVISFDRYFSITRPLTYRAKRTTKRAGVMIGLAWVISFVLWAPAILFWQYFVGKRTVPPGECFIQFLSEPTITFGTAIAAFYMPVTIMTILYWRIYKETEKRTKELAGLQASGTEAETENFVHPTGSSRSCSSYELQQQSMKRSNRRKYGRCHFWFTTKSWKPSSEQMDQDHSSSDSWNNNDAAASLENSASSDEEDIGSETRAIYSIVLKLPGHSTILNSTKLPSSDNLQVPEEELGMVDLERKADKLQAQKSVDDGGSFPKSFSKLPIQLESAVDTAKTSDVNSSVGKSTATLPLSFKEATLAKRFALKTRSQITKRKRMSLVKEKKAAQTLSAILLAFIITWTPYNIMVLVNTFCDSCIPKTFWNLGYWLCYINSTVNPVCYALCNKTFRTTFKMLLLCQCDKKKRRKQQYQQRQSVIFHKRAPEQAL

[21] = target: T6, Muscarinic acetylcholine receptor M4 (Homo sapiens, UniProt P08173); assay: as §1, with “CHRM4” for “OPRD1”
T6 sequence (P08173 whole entry): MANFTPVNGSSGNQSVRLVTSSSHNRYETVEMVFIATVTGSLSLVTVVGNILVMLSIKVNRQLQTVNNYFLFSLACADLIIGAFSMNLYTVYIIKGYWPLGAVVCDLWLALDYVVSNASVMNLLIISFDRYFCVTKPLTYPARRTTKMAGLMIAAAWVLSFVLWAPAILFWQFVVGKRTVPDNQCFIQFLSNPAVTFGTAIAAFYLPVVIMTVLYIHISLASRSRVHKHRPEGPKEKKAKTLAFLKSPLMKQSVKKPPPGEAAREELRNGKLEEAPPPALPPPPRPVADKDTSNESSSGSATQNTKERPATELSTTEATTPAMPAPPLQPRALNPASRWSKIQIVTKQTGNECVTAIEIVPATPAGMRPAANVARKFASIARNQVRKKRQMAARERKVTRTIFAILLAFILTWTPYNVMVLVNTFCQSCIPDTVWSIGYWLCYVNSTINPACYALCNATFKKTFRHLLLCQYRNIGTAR

Structure (SMILES): C[C@@H](N)Cc1c[nH]cn1
pKi [4]: 6.77

Structure (SMILES): C=CCN1C[C@H](C)N([C@H](c2ccc(C(=O)N(CC)CC)cc2)c2cccc(O)c2)C[C@H]1C
pKi [1]: 8.42 | pKi [6]: 7.83 | pKi [7]: 6.97 | pKi [8]: 7.63

Structure (SMILES): Cc1cn2cc(CC(=O)N3CCC4(CC3)CN(Cc3ccc(-n5nccn5)cc3Cl)C4)nc2s1
pKi [13]: 6.07 | pKi [14]: 6.18 | pKi [15]: < 5.00 | pKi [16]: 6.61 | pKi [17]: 5.48 | pKi [7]: 6.28 | pKi [18]: 5.87 | pKi [19]: 6.32 | pKi [20]: 5.82 | pKi [21]: 6.74

Structure (SMILES): CN(C(=O)Cc1ccc(Cl)c(Cl)c1)C(CN1CCCC1)c1cccc(OCC(=O)O)c1 (stereo not drawn)
pKi [1]: 6.39 | pKi [14]: 5.23 | pKi [6]: 6.49

Results, then the molecule that gave them:

pKi [1]: < 5.00 | pKi [2]: 5.50
Structure (SMILES): N#Cc1c(N)nc(SCc2csc(-c3ccc(Cl)cc3)n2)c(C#N)c1-c1ccc(OCCO)cc1 [CAPADENOSON]

pKi [3]: 5.39 | pKi [4]: 8.31 | pKi [5]: 9.20
Structure (SMILES): N=C(N)SCCc1cnc[nH]1

pKi [1]: < 5.00 | pKi [9]: < 5.00 | pKi [10]: < 5.00 | pKi [11]: 5.09 | pKi [12]: 5.84
Structure (SMILES): Cc1c(C2=CCN(C(=O)N(C)C(C)C)CC2)nnn1-c1cccnc1F
